Assay results published in patent publication US9809582B2, “Aminoester derivatives” (CHIESI FARMACEUTICI S.p.A., priority 2015, dated 2017).
Read-outs that look alike come from different tables or passages of the source.

Columns and labels:
Human recombinant PDE4B2 = Human recombinant PDE4B2 (Homo sapiens (Human), UniProt Q07343); experiment: PDE4B2 HTRF assay; type: biochemical
Method: PDE4B2 activity is detected using the LANCE Ultra cAMP homogeneous time resolved fluorescence resonance energy transfer (TR-FRET) assay from Perkin Elmer. The assay is based on the competition between the europium (Eu) chelate-labeled cAMP tracer and sample cAMP for binding sites on cAMP-specific monoclonal antibodies (mAb) labelled with the ULight™ dye. The assay is carried out in 384-well low volume plates in a volume of 10 μl. Human recombinant PDE4B2 (80 pM) is incubated for 2 h with 3 nM cAMP in buffer containing 1×HBSS, 5 mM HEPES, 3 mM MgCl2, 0.1% BSA, pH 7.4 with or without test compounds. The enzymatic reactions are efficiently stopped by the addition of 500 μM IBMX present in the combined Stop/Detection buffer containing europium (Eu) chelate-labeled cAMP tracer and cAMP-specific monoclonal antibodies (mAb) labelled with the ULight™ dye. […] IC50 values are determined from competition curves using a non-linear curve fitting program.

Human M3 receptor = Human M3 receptor (Homo sapiens (Human), UniProt P20309); experiment: M3 receptor radioligand binding assay
Human M3 receptor, sequence (P20309 whole entry): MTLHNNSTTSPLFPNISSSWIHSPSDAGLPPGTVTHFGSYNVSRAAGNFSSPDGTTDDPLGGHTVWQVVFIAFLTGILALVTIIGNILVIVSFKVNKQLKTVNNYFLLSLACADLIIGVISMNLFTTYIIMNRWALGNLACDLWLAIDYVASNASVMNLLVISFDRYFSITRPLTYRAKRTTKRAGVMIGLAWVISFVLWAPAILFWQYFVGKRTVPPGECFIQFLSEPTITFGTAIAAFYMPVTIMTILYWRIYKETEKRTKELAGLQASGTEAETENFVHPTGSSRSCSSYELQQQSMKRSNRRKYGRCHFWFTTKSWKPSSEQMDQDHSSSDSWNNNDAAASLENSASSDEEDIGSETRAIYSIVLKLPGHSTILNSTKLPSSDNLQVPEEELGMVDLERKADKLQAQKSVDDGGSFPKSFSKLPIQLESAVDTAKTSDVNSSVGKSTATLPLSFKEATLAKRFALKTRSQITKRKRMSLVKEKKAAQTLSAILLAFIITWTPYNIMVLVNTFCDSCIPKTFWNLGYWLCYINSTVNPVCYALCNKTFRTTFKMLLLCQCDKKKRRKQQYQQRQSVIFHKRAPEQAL
Method: M3 Receptor Radioligand Binding Assay:
The assay is carried out in 96-well polypropylene plates in a volume of 250 μl. […] The final assay concentration of DMSO is 0.5% (v/v). The plates are sealed and incubated for 2 h at room temperature on an orbital shaker (slow speed). Membranes are harvested onto 96-well unifilter GF/C filter plates pre-treated with 0.5% polyethyleneimine (v/v), using a filter manifold, washed four times with […] of assay buffer. The plates are dried before addition of 50 μl of microscint-0, sealed then read in a Trilux Microbeta scintillation counter. IC50 values are determined from competition curves using a non-linear curve fitting program. Ki values are calculated from IC50 values by the Cheng and Prusoff equation.

[1] = M3 Receptor radioligand binding assay, read-out: M3 IC50 Activity
[2] = PDE4B2 HTRF assay, read-out: PDE4B2 IC50 Activity

Human recombinant PDE4B2, sequence (Q07343 other isoform, or with tags, fused parts or gaps): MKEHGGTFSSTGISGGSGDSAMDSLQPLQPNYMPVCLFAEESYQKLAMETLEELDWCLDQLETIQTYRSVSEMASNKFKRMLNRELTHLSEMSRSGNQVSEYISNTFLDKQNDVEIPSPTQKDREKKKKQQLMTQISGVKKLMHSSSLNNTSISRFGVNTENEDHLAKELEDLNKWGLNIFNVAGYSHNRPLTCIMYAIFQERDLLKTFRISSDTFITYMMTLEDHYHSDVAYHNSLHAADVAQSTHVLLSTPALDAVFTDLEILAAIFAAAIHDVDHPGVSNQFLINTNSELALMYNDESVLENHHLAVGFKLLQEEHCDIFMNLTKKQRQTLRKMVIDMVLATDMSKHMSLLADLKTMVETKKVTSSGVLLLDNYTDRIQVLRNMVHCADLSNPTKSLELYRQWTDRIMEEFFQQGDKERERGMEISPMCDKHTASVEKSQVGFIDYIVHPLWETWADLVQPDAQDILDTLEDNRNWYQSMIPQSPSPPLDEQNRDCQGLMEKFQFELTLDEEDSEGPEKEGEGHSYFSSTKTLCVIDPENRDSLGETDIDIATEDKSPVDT

SMILES	IC50 (Human M3 receptor; M3 IC50 Activity)	IC50 (Human recombinant PDE4B2)	IC50 (Human M3 receptor; [1])	also measured
COc1ccc([C@H](Cc2c(Cl)c[n+]([O-])cc2Cl)OC(=O)c2ccc(CNCC(C)(C(=O)O[C@H]3CN4CCC3CC4)c3ccccc3)s2)cc1OC (stereo partly drawn) [Example 7, [(1S)-2-(3,5-dichloro-1-oxido-pyridin-1-ium-4-yl)-1-(3,4-dimethoxyphenyl)ethyl] 5-[[[2-methyl-3-oxo-2-phenyl-3-[(3R)-quinuclidin-3-yl]oxy-propyl]amino]methyl]thiophene-2-carboxylate]				IC50 (Human recombinant PDE4B2; read-out: PDE4B2 IC50 Activity): 0.001 to 0.01 µM
COc1ccc([C@H](Cc2c(Cl)c[n+]([O-])cc2Cl)OC(=O)c2ccc(CNCC(C(=O)O[C@H]3CN4CCC3CC4)c3ccccc3)s2)cc1OC (stereo partly drawn) [Example 1, [(1S)-2-(3,5-dichloro-1-oxido-pyridin-1-ium-4-yl)-1-(3,4-dimethoxyphenyl)ethyl] 5-[[[3-oxo-2-phenyl-3-[(3R)-quinuclidin-3-yl]oxy-propyl]amino]methyl]thiophene-2-carboxylate]	0.001 to 0.01 µM	0.001 to 0.01 µM		
COc1ccc([C@H](Cc2c(Cl)c[n+]([O-])cc2Cl)OC(=O)c2ccc(CNC3CC(C(=O)OC4CCN(C)CC4)(c4ccccc4)C3)s2)cc1OC (stereo partly drawn) [Example 32, [(1S)-2-(3,5-dichloro-1-oxido-pyridin-1-ium-4-yl)-1-(3,4-dimethoxyphenyl)ethyl] 5-[[[3-[(1-methyl-4-piperidyl)oxycarbonyl]-3-phenyl-cyclobutyl]amino]methyl]-thiophene-2-carboxylate]			0.01 to 0.1 µM	IC50 (Human recombinant PDE4B2; [2]): < 0.001 µM
COc1ccc([C@H](Cc2c(Cl)c[n+]([O-])cc2Cl)OC(=O)c2ccc(CN3CC(C(=O)O[C@@H]4CCN(C)C4)(c4ccccc4)C3)s2)cc1OC [Example 16, [(3R)-1-methylpyrrolidin-3-yl] 1-[[5-[(1S)-2-(3,5-dichloro-1-oxido-pyridin-1-ium-4-yl)-1-(3,4-dimethoxyphenyl)ethoxy]carbonyl-2-thienyl]methyl]-3-phenyl-azetidine-3-carboxylate]			0.001 to 0.01 µM	IC50 (Human recombinant PDE4B2; [2]): 0.001 to 0.01 µM
COc1ccc([C@H](Cc2c(Cl)c[n+]([O-])cc2Cl)OC(=O)c2ccc(CNCC(C(=O)O[C@H]3CN4CCC3CC4)c3ccccc3)s2)cc1OC (single isomer, unassigned) [Example 20]	< 0.001 µM	0.001 to 0.01 µM		
COc1ccc([C@H](Cc2c(Cl)c[n+]([O-])cc2Cl)OC(=O)c2ccc(CN3CCC(C(=O)O[C@H]4CN5CCC4CC5)(c4ccccc4)CC3)cc2)cc1OC [Example 11, [(3R)-quinuclidin-3-yl]-1-[[4-[(1S)-2-(3,5-dichloro-1-oxido-pyridin-1-ium-4-yl)-1-(3,4-dimethoxyphenyl)ethoxy]-carbonylphenyl]methyl]-4-phenyl-piperidine-4-carboxylate]	0.01 to 0.1 µM	0.001 to 0.01 µM		
COc1ccc([C@H](Cc2c(Cl)c[n+]([O-])cc2Cl)OC(=O)c2ccc(CNCC(C)(C(=O)O[C@H]3CN4CCC3CC4)c3ccccc3)s2)cc1OC (stereo partly drawn) [Example 30, [(1S)-2-(3,5-dichloro-1-oxido-pyridin-1-ium-4-yl)-1-(3,4-dimethoxyphenyl)ethyl] 5-[[[2-methyl-3-oxo-2-phenyl-3-[(3R)-quinuclidin-3-yl]oxy-propyl]amino]methyl]thiophene-2-carboxylate]	0.001 to 0.01 µM			
COc1ccc([C@H](Cc2c(Cl)c[n+]([O-])cc2Cl)OC(=O)c2ccc(CNCC(C)(C(=O)O[C@H]3CN4CCC3CC4)c3ccccc3)s2)cc1OC (stereo partly drawn) [Example 31, [(1S)-2-(3,5-dichloro-1-oxido-pyridin-1-ium-4-yl)-1-(3,4-dimethoxyphenyl)ethyl] 5-[[[2-methyl-3-oxo-2-phenyl-3-[(3R)-quinuclidin-3-yl]oxy-propyl]amino]methyl]thiophene-2-carboxylate]	0.01 to 0.1 µM	0.001 to 0.01 µM		
COc1ccc([C@H](Cc2c(Cl)c[n+]([O-])cc2Cl)OC(=O)c2ccc(CN3CC(C(=O)O[C@H]4CN5CCC4CC5)(c4ccccc4)C3)s2)cc1OC [Example 15, [(3R)-quinuclidin-3-yl]-1-[[5-[(1S)-2-(3,5-dichloro-1-oxido-pyridin-1-ium-4-yl)-1-(3,4-dimethoxyphenyl)ethoxy]carbonyl-2-thienyl]methyl]-3-phenyl-azetidine-3-carboxylate]		0.001 to 0.01 µM		
COc1ccc([C@H](Cc2c(Cl)c[n+]([O-])cc2Cl)OC(=O)c2ccc(CNCC(C(=O)O[C@@H]3CCN(C)C3)c3ccccc3)s2)cc1OC (stereo partly drawn) [Example 4, [(1S)-2-(3,5-dichloro-1-oxido-pyridin-1-ium-4-yl)-1-(3,4-dimethoxyphenyl)ethyl]-5-[[[3-[(3R)-1-methylpyrrolidin-3-yl]oxy-3-oxo-2-phenyl-propyl]amino]methyl]thiophene-2-carboxylate]			0.01 to 0.1 µM	IC50 (Human recombinant PDE4B2; [2]): 0.001 to 0.01 µM
COc1ccc([C@H](Cc2c(Cl)c[n+]([O-])cc2Cl)OC(=O)c2ccc(CN(C)CC(C)(C(=O)O[C@H]3CN4CCC3CC4)c3ccccc3)s2)cc1OC (stereo partly drawn) [Example 10, [(1S)-2-(3,5-dichloro-1-oxido-pyridin-1-ium-4-yl)-1-(3,4-dimethoxyphenyl)ethyl]-5-[[methyl-[2-methyl-3-oxo-2-phenyl-3-[(3R)-quinuclidin-3-yl]oxy-propyl]amino]methyl]thiophene-2-carboxylate]	0.001 to 0.01 µM	0.001 to 0.01 µM		
COc1ccc([C@H](Cc2c(Cl)c[n+]([O-])cc2Cl)OC(=O)c2ccc(CN(C)CC(C)(C(=O)O[C@H]3CN4CCC3CC4)c3ccccc3)s2)cc1OC (stereo partly drawn) [Example 26, [(1S)-2-(3,5-dichloro-1-oxido-pyridin-1-ium-4-yl)-1-(3,4-dimethoxyphenyl)ethyl] 5-[[methyl-[2-methyl-3-oxo-2-phenyl-3-[(3R)-quinuclidin-3-yl]oxy-propyl]amino]methyl]thiophene-2-carboxylate]				IC50 (Human M3 receptor; read-out: M3 IC50 Activity): 0.001 to 0.01 µM; IC50 (Human recombinant PDE4B2; read-out: PDE4B2 IC50 Activity): 0.001 to 0.01 µM
COc1ccc([C@H](Cc2c(Cl)c[n+]([O-])cc2Cl)OC(=O)c2ccc(CN(C)CC(C)(C(=O)O[C@H]3CN4CCC3CC4)c3ccccc3)s2)cc1OC (stereo partly drawn) [Example 27, [(1S)-2-(3,5-dichloro-1-oxido-pyridin-1-ium-4-yl)-1-(3,4-dimethoxyphenyl)ethyl] 5-[[methyl-[2-methyl-3-oxo-2-phenyl-3-[(3R)-quinuclidin-3-yl]oxy-propyl]amino]methyl]thiophene-2-carboxylate]				IC50 (Human recombinant PDE4B2; read-out: PDE4B2 IC50 Activity): 0.001 to 0.01 µM
COc1ccc([C@H](Cc2c(Cl)c[n+]([O-])cc2Cl)OC(=O)c2ccc(CNCC(C(=O)OC3CCN(C)CC3)c3ccccc3)s2)cc1OC (stereo partly drawn) [Example 5, [(1S)-2-(3,5-dichloro-1-oxido-pyridin-1-ium-4-yl)-1-(3,4-dimethoxyphenyl)ethyl] 5-[[[3-[(1-methyl-4-piperidyl)oxy]-3-oxo-2-phenyl-propyl]amino]methyl]thiophene-2-carboxylate]			0.001 to 0.01 µM	
COc1ccc([C@H](Cc2c(Cl)c[n+]([O-])cc2Cl)OC(=O)c2ccc(CNCC(C)(C(=O)OC3CCN(C)CC3)c3ccccc3)s2)cc1OC (stereo partly drawn) [Example 24, [(1S)-2-(3,5-dichloro-1-oxido-pyridin-1-ium-4-yl)-1-(3,4-dimethoxyphenyl)ethyl] 5-[[[2-methyl-3-[(1-methyl-4-piperidyl)oxy]-3-oxo-2-phenyl-propyl]amino]methyl]thiophene-2-carboxylate]			0.01 to 0.1 µM	
COc1ccc([C@H](Cc2c(Cl)c[n+]([O-])cc2Cl)OC(=O)c2ccc(CNCC(C)(C(=O)OCCN(C)C)c3ccccc3)s2)cc1OC (single isomer, unassigned) [Example 28]			0.01 to 0.1 µM	
COc1ccc([C@H](Cc2c(Cl)c[n+]([O-])cc2Cl)OC(=O)c2ccc(CNCC(C)(C(=O)OC3CCN(C)CC3)c3ccccc3)s2)cc1OC (stereo partly drawn) [Example 8, [(1S)-2-(3,5-dichloro-1-oxido-pyridin-1-ium-4-yl)-1-(3,4-dimethoxyphenyl)ethyl] 5-[[[2-methyl-3-[(1-methyl-4-piperidyl)oxy]-3-oxo-2-phenyl-propyl]amino]methyl]thiophene-2-carboxylate]			0.01 to 0.1 µM	
COc1ccc([C@H](Cc2c(Cl)c[n+]([O-])cc2Cl)OC(=O)c2ccc(CNC3CC(C(=O)O[C@H]4CN5CCC4CC5)(c4ccccc4)C3)s2)cc1OC (stereo partly drawn) [Example 36, [(1S)-2-(3,5-dichloro-1-oxido-pyridin-1-ium-4-yl)-1-(3,4-dimethoxyphenyl)ethyl] 5-[[[3-phenyl-3-[(3R)-quinuclidin-3-yl]oxycarbonyl-cyclobutyl]amino]methyl]thiophene-2-carboxylate]				IC50 (Human recombinant PDE4B2; read-out: PDE4B2 IC50 Activity): 0.001 to 0.01 µM
COc1ccc([C@H](Cc2c(Cl)c[n+]([O-])cc2Cl)OC(=O)c2ccc(CNCC(C)(C(=O)OCCN(C)C)c3ccccc3)s2)cc1OC (stereo partly drawn) [Example 9, [(1S)-2-(3,5-dichloro-1-oxido-pyridin-1-ium-4-yl)-1-(3,4-dimethoxyphenyl)ethyl] 5-[[[3-(2-dimethylaminoethyloxy)-2-methyl-3-oxo-2-phenyl-propyl]amino]methyl]thiophene-2-carboxylate]			0.01 to 0.1 µM	
